Residues, ends and D or L forms follow the SMILES beside them.
Target: Endothelin receptor type B (Sus scrofa)
Assay: Binding activity against Endothelin B receptor 0f Porcine cerebellum membranes

Structure (SMILES) | IC50 [µM]
CC[C@H](C)[C@H]1NC(=O)[C@H](C)NC(=O)[C@@H](CCC(=O)O)NC(=O)[C@@H](Cc2c[nH]c3ccccc23)NC(=O)[C@H](CC(C)C)NC1=O (HELM PEPTIDE1{A.[CC[C@H](C)[C@@H](N[*:1])C(=O)[*:2]].L.[dW].[dE]}$PEPTIDE1,PEPTIDE1,1:R1-5:R2$$$V2.0) | > 100
CC(C)[C@H]1NC(=O)[C@H](C)NC(=O)[C@@H](CC(=O)O)NC(=O)[C@@H](Cc2c[nH]c3ccccc23)NC(=O)[C@@H]2CCCN2C1=O (HELM PEPTIDE1{A.[dV].P.[dW].[dD]}$PEPTIDE1,PEPTIDE1,1:R1-5:R2$$$V2.0) | > 100
CC(C)C[C@@H]1NC(=O)[C@@H](C(C)C)NC(=O)CN(C)C(=O)[C@@H](CC(=O)O)NC(=O)[C@@H](Cc2c[nH]c3ccccc23)NC1=O (HELM PEPTIDE1{L.[dW].[dD].[Sar].[dV]}$PEPTIDE1,PEPTIDE1,1:R1-5:R2$$$V2.0) | 30
CC(C)C[C@@H]1NC(=O)[C@@H](C(C)C)NC(=O)[C@H](C)N(C)C(=O)[C@@H](CC(=O)O)NC(=O)[C@@H](Cc2c[nH]c3ccccc23)NC1=O (HELM PEPTIDE1{L.[dW].[dD].[meA].[dV]}$PEPTIDE1,PEPTIDE1,1:R1-5:R2$$$V2.0) | 47
CC(C)C[C@@H]1NC(=O)[C@@H](C(C)C)NC(=O)[C@@H]2CCCN2C(=O)[C@@H](CCC(=O)O)NC(=O)[C@@H](Cc2c[nH]c3ccccc23)NC1=O (HELM PEPTIDE1{L.[dW].[dE].P.[dV]}$PEPTIDE1,PEPTIDE1,1:R1-5:R2$$$V2.0) | > 100

From BindingDB's records for doi:10.1021/jm00089a028 (1992)
